# pIC50: −log10 of the molar value.
# How the values were obtained:
# [1] = Pharmacokinetic determination in mice (PO 5 mg/kg, IV 1 mg/kg); assay type: in vivo, C57BL/6J mice; settings: male, C57BL/6J, mouse, plasma, C57 mice, PO administration, 5 mpk; for AUC(0-inf): read-out: Area under the curve AUC0-∞; for half-life: read-out: Half-life t1/2 (converted); for MRT: read-out: Mean residence time MRT; for Cmax: read-out: Plasma concentration Cmax; for Tmax: read-out: Time to peak tmax
# Description: 1. Experimental objective: C57BL/6J mice were used as test animals to study the pharmacokinetic behavior of the compounds of the present disclosure in mice (plasma) after oral and intravenous administration.
# 2.2 Test animals: C57 mice, male, purchased from Shanghai Bk Lab Animal Co., Ltd., with animal production license number (SCXK (Shanghai) 2013-0006 N0.311620400001794).
# 2.3 Drug preparation: Preparation of oral drug: 10% Solutol HS15
# 10 g of Solutol HS15 solid was weighed, dissolved in 90 mL of pure water, uniformly mixed, stirred, and ultrasonically treated to form a clear solution. The compound of the present disclosure was weighed and dissolved in this solution, uniformly shaken, and ultrasonically treated for 15 minutes to obtain a colorless clear solution with a concentration of 0.5 mg/mL. Preparation of intravenous drug: 5% DMSO+10% Solutol HS15+85% PBS, the compound of the present disclosure was weighed, 5% DMSO was first added on the basis of the proportion relative to the total volume of administration, and the mixture was vortexed and ultrasonically treated for 2 min until it was completely dissolved; 10% of Solutol HS15 was then added, and the mixture was vortexed and ultrasonically treated for 2 min until it was completely dissolved; and finally, 85% of PBS was added, and the mixture was vortexed, ultrasonically treated for 5 min, and filtered through a 0.22 um filter membrane to obtain a colorless and transparent clear solution with a concentration of 0.2 mg/mL.
# 2.4 Administration: 3 male C57 mice were fasted overnight and then respectively administered PO at a dose of 5 mg/kg and a volume of 10 mL/kg. 3 male C57 mice were fasted overnight and then respectively administered IV at a dose of 1 mg/kg and a volume of 5 mL/kg.
# 2.5 Sample collection: Before and after administration of mice, 0.04 mL of blood was collected from the orbit at 0.083 (iv), 0.25, 0.5, 1, 2, 4, 8, and 24 hours, and placed in EDTA-K2 test tubes, which was centrifuged at 6000 rpm at 4° C. for 6 min to separate plasma which was stored at −80° C.; and the […] were fed 4 h after administration.
# 2.6 Determination results: The final determination results were obtained by using an LCMS/MS method.
# 3. Experimental results: The main pharmacokinetic parameters were calculated using WinNonlin 6.1.
# [2] = target: T1, PCSK9 protein (Homo sapiens, UniProt Q8NBP7); experiment: Binding ability to PCSK9 protein (HTRF); settings: PCSK9-His, Alexa Fluor 647 probe compound
# T1 construct: purchased Sino biology (Sino Biological) 29698-H08H
# Description: 1. Experimental objective: To detect the action of compounds to bind PCSK9 protein by an HTRF method.
# 3. Experimental data processing method: Four-parameter log(inhibitor) vs. response—Variable slope (four parameters) in XLit was used to perform non-linear fitting of the compound concentration and the corresponding inhibition rate, and IC50 was calculated.
# [3] = test system: PCSK9 secreted by HepG2 cells; experiment: Effect on the concentration of PCSK9 secreted by HepG2 cells (ELISA); assay type: cell-based; settings: Homo sapiens, 48 hours, PCSK9 in culture medium by ELISA
# Description: 1. Experimental objective: To detect the inhibitory effect of the compounds on PCSK9.
# 2. Experimental method: • 1) HepG2 cell strain was cultured in the complete culture medium at 37° C., 5% CO2 to 70-90% confluence. • 2) The cells were digested and resuspended in the experimental culture medium, inoculated at 25,000 cells/well/200 μL in a 96-well cell culture plate, and cultured at 37° C. and 5% CO2 for 20-24 hours. • 3) The culture medium was removed from the cell culture plate, and the cell culture plate was washed once by adding 200 ul of the experimental culture medium to each well. • 4) Preparation of positive control compound and compound to be tested: the positive control compound and the compound to be tested were diluted on the compound plate. • 5) The diluted compound was added to the cell culture plate at 250 μL per well and incubated at 37° C. and 5% CO2 for 48 hours. • 6) The cell culture medium was collected at 200 μL per well and cryopreserved at −80° C. for later use. • 7) A sample of the cell culture medium was taken from the −80° C. cryopreservation condition, dissolved, vortexed, and centrifuged for later use. • 8) Preparation of standard curve: corresponding volumes of Dilution buffer were successively added to respective standard tubes, and in the order of the concentrations of 10, 5, 2.5, 1.25, 0.625, 0.313, 0.16, 0 ng/mL, the standard was diluted in series by taking the corresponding volume from the original tube or the last concentration tube. • 9) Preparation of washing liquid: 10x Wash buffer was diluted into 1x with Milli-Q for later use. • 10) According to the standard curve wells and sample wells set according to a plate map, 100 μL/well of the corresponding standards and culture medium samples were added to the wells, with 2 replicate wells. A self-adhesive seal was applied, the plate was placed on a plate shaker at room temperature, gently shaken, uniformly mixed, and incubated for 1 hour. • 11) The plate was placed on the plate washer, the washing liquid was set to 350 μL per well, and the plate was washed 4 times repeatedly. • 12) 100 μL/well of an HRP-conjugated detection antibody was added, a self-adhesive seal was applied, and the plate was placed on the plate shaker, well mixed uniformly, and incubated for 1 hour. • 13) The plate was placed on the plate washer, the washing liquid was set to 350 μL per well, and the plate was washed 4 times repeatedly. • 14) 100 μL/well of Substrate reagent was added, and the plate was placed in the dark, applied with a self-adhesive seal, placed on the plate shaker, well mixed uniformly, and incubated for 10-20 minutes. • 15) 100 μL of Stop solution (1N H2SO4) was added to each well and mixed uniformly. • 16) The optical density (OD) value in each well was measured in sequence at a wavelength of 450 nm by the microplate reader. Detection was carried out within 30 min after the reaction was stopped.
# 3. Experimental data processing method: After the OD values were read by the microplate reader, the OD value of the 0-concentration standard in the standard group was subtracted from the OD values of the standards, control group, and samples to obtain the actual OD values for these wells. A standard curve was plotted with Graphpad and the concentration of the sample was calculated. If the dilution was performed during the sample detection, the calculated sample concentration was necessarily multiplied by the corresponding dilution ratio in the final calculation, which was the actual concentration of the sample. Inhibition rate=(actual concentration in control−actual concentration in sample)/actual concentration in control*100. According to the inhibition rates corresponding to the different concentrations, IC50 was derived by Graphpad.
# T1 sequence (Q8NBP7 153-692): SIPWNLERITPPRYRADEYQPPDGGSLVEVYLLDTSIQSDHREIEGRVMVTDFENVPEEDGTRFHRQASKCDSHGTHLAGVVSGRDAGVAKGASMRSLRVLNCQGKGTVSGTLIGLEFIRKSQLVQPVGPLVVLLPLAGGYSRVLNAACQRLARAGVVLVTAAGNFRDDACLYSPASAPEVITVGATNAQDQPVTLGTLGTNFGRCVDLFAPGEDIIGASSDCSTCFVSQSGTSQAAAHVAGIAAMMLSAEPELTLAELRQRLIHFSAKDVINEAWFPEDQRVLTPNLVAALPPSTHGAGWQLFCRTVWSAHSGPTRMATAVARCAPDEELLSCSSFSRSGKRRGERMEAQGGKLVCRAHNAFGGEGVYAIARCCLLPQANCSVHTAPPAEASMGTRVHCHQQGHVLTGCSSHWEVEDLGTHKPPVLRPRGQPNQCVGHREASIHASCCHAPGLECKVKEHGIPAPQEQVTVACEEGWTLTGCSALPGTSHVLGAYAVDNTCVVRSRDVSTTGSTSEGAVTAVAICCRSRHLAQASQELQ
Compound,AUC(0-inf) [1] [ng·h/mL],half-life [1] [h],MRT [1] [h],Cmax [1] [ng/mL],Tmax [1] [h],pIC50 [2],pIC50 [3]
"N#Cc1cnc2c(c1)C(=O)N(c1ccc(N[C@H]3CC[C@H](Nc4nc5cc(C(F)(F)F)ccn5n4)C3)nc1)C2 [Example 65, 5-carbonyl-6-(6-(((1S,3S)-3-((7-(trifluoromethyl)-[1,2,4]triazolo[1,5-a]pyridin-2-yl)amino)cyclopentyl)amino)pyridin-3-yl)-6,7-dihydro-5H-pyrrolo[3,4-b]pyridine-3-carbonitrile]",70000,4,5.8,7870,4,7.86,4.89
"Cc1cc2c(cn1)C(=O)N(c1ccc(N[C@H]3CC[C@H](Nc4nc5cc(C(F)(F)F)ccn5n4)C3)nc1)C2 [Example 89, 6-methyl-2-(6-(((1S,3S)-3-((7-(trifluoromethyl)-[1,2,4]triazolo[1,5-a]pyridin-2-yl)amino)cyclopentyl)amino)pyridin-3-yl)-1,2-dihydro-3H-pyrrolo[3,4-c]pyridin-3-one]",34300,2.7,3.1,10300,0.25,7.98,5.40
[2H]C1([2H])c2ncccc2C(=O)N1c1ccc(N[C@H]2CC[C@H](Nc3nc4cc(C(F)(F)F)ccn4n3)C2)nc1 [Example 114],7230,3.1,3,2350,0.5,8.05,4.83
Cc1cnc2c(c1)C(=O)N(c1ccc(N[C@H]3CC[C@H](Nc4nc5cc(C(F)(F)F)ccn5n4)C3)nc1)C2 [Example 115],,,,,,8.00,5.59
O=C1c2cc(Cl)cnc2CN1c1ccc(N[C@H]2CC[C@H](Nc3nc4cc(C(F)(F)F)ccn4n3)C2)nc1 [Example 116],,,,,,7.79,6.30
O=C1c2ccc(Cl)cc2CN1c1ccc(N[C@H]2CC[C@H](Nc3nc4cc(C(F)(F)F)ccn4n3)C2)nc1 [Example 117],,,,,,7.74,6.40
N#Cc1cnc2c(c1)C(=O)N(c1ccc(N[C@H]3CC[C@H](Nc4nc5cc(OC(F)F)ccn5n4)C3)nc1)C2 [Example 123],62200,2.4,4.3,9920,2,7.94,5.28
N#Cc1ccc2c(n1)CN(c1ccc(N[C@H]3CC[C@H](Nc4nc5cc(OC(F)F)ccn5n4)C3)nc1)C2=O [Example 132],30600,2.9,3,8570,0.5,8.00,5.19
O=C1c2ccc(C(F)(F)F)nc2CN1c1ccc(N[C@H]2CC[C@H](Nc3nc4cc(OC(F)F)ccn4n3)C2)nc1 [Example 133],86800,5,5.8,11000,2,8.11,6.40
O=C1c2ncc(F)cc2CN1c1cnc(N[C@H]2CC[C@H](Nc3nc4cc(C(F)(F)F)ccn4n3)C2)c(F)c1 [Example 145],22600,3.3,3.1,6310,1,7.97,5.54
N#Cc1cnc2c(c1)C(=O)N(c1cnc(N[C@H]3CC[C@H](Nc4nc5cc(C(F)(F)F)ccn5n4)C3)c(F)c1)C2 [Example 147],,,,,,8.06,6.52
N#Cc1cnc2c(c1)C(=O)N(c1cnc(N[C@H]3CC[C@H](Nc4nc5cc(OC(F)F)ccn5n4)C3)c(F)c1)C2 [Example 153],,,,,,7.91,6.10
N#Cc1ccnc2c1C(=O)N(c1ccc(N[C@H]3CC[C@H](Nc4nc5cc(C(F)(F)F)ccn5n4)C3)nc1)C2 [Example 163],,,,,,8.20,4.97
